Test results as given in patent US20030113330A1, “Methods for treating pulmonary fibrosis” (priority 1999, published 2003).
Entries after “also recorded” stand apart in the source; their conditions may differ. Where a SMILES comes first, the peptide text is derived from it. The star is where a group is joined. Cbz = O=C(OCc1ccccc1)*; CH2F = FC*

How the values were obtained:
[1] = system: adult male Wistar rats; conditions: for lung lesions, histology / total lung collagens by hydroxyproline assay: 14 days post-bleomycin
Description: Adult male Wistar rats were given intratracheal instillations of 8 U/kg bleomycin sulfate (BLEO) or sterile saline. […] Lung fibrosis was assessed by picrosirius red (PR) quantitation of lung collagen and by hydroxyproline (HP) assay at 14 days after BLEO administration. At the same time point, fragmented DNA in lung epithelial cells was detected by in situ end labeling (ISEL).
Animals and Induction of Pulmonary Fibrosis. Forty adult male Wistar rats, 175-200 grams, were divided into four groups; three groups received a single intratracheal instillation of 8 units per kilogram of bleomycin sulfate (BLEO) in sterile saline. Two days before the administration of BLEO, one group received captopril in the drinking water at a concentration of 500 mg/liter. […] Control animals (NORM) received administrations of the vehicles only.
Immediately before sacrifice, animals were given intraperitoneal injections of sodium pentobarbital and the trachea was cannulated. The middle right lobe was ligated at the hilus, was excised distal to the ligation and was immediately frozen in liquid N2 for hydroxyproline assay of total collagen (see below). The remaining lung tissues were carefully removed and were instilled with 4% paraformaldehyde in PBS at 20 cm H2O constant pressure, then immersed in the same fixative for two hours. The fixed tissues were washed with PBS three times for 15 minutes and were then embedded in paraffin. Five-micron sections of lung were deparaffinized by passing through xylene, xylene:alcohol 1:1, 100% alcohol and 70% alcohol for 10 minutes each. Ethanol was removing by rinsing with distilled water.
In situ end-labeling (ISEL) of fragmented DNA. ISEL was conducted by a modification of the method of Mundle et al., Cell Death and Differentiation, 1: 117-122 (1994). Briefly, ethanol was removed from deparaffinized lung sections by rinsing in distilled water for at least 10 minutes. The slides were then placed in 3% hydrogen peroxide (Sigma Chemical, St. Louis, Mo.) for 30 minutes at 20° C., rinsed with PBS, and incubated with Proteinase K (Sigma Chemical, St. Louis, Mo.) in saline sodium citrate solution (SSC) (0.3 M NaCi and 30 mM sodium citrate in water, pH 7.0) for 15 minutes at 37° C. Samples were rinsed once in water, three times in 0.15 M PBS for 4 minutes each, and then incubated in SSC at 80° C. for 20 minutes. After four rinses in PBS and four rinses in Buffer A (50 mM Tris/HCl, 5 mM MgCl, 10 mM β-mercaptoethanol and 0.005% BSA in water, pH 7.5), the sections were incubated at 18° C. for two hours with ISEL solution (0.001 mM digoxigenin-dUTP, 20 U/ml DNA Polymerase 1 and 0.01 mM each of dATP, dCTP and dGTP in Buffer A). The sections were then rinsed thoroughly five times with Buffer A and three times with PBS. Detection of incorporated dUTP was achieved by incubation for two hours at 37° C. with AP-conjugated anti-digoxigenin (Boerhinger Mannheim, Indianapolis, Ind.) at a 1:400 dilution. Bound AP-antibody complexes were detected with the Fast Blue chromogen system and the sections were mounted with Fluoromount Solution (Southern Biotechnology, Birmingham, Ala.).
Identification of Collagen. Collagens were localized through staining of lung sections by the picrosirius red technique, see Pick et al., Am. J. Pathol. 134:365-371 (1989), which has absolute specificity for collagen. Briefly, sections deparaffinized with xylenes were rehydrated through a descending series of ethanols to distilled water. The hydrated sections were immersed in 0.2% aqueous phosphomolybdic acid for 2 minutes, rinsed in distilled water and then stained for 110 minutes with 0.1% Sirius Red F3BA (Pfal and Bauer, Stamford, Conn.) in saturated aqueous picric acid, pH 2.0. The sections were washed for 2 minutes in 0.01 N HCl, rinsed for 45 seconds in 70% ethanol, dehydrated in three changes of absolute alcohol, cleared in xylene and mounted in a nonaqueous mounting medium.

[2] = system: primary rat alveolar epithelial cells; test: Apoptosis of rat AEC induced by human lung fibroblast-conditioned media; type: cell-based; conditions: saralasin 50 ug/ml, DEVD-fmk 60 uM, anti-ANGII IgG 1 ug/ml
Description: Fibroblast Isolation, Culture and Preparation of Conditioned Media. Primary human lung fibroblasts were isolated at the National Institute of Respiratory Diseases, Mexico. […] Of these, “fibrotic” lung fibroblast strains (HIPF-X, where X=patient number) were derived from patients suffering from either of two different types of interstitial lung disease (ILD): Idiopathic Pulmonary Fibrosis (IPF) and Chronic Hypersensitivity Pneumonitis (CHP). In both diseases, patients had clinical, functional and radiologic features which fulfill the diagnostic criteria for an ILD. […] Briefly, all patients had progressive dyspnea, bilateral reticulonodular images on chest roentgenogram, restrictive lung functional impairment with decreased lung volumes and compliance, and hypoxemia at rest that worsened with exercise. […] Patients with IPF had neither antecedents of any occupational or environmental exposure nor other known cause of ILD. […] Biopsies lacked granulomas, vasculitis, microorganisms, and inorganic material by polarized light microscopy.
Control fibroblasts were obtained from individuals having undergone a lobectomy for removal of a primary lung tumor. […] Lung fibroblasts from normal or fibrotic tissue were isolated by trypsin dispersion, and fibroblast strains were established in Dulbecco's modified Eagle's medium (or in Ham's F-12 medium) supplemented with 10% fetal calf serum, 200 U/ml penicillin, and 200 mg/ml streptomycin. […]
Epithelial Cell Culture and Detection of Apoptosis. […] All epithelial cell preparations were greater than 90% pure as determined by acridine orange uptake into lamellar bodies. […] Epithelial cell apoptosis was detected by the assessment, under fluorescence microscopy, of chromatin condensation and nuclear fragmentation within cytokeratin-positive cells after ethanol fixation and staining with propidium iodide. […]
The percentage increase in rat AEC apoptosis was determined by propidium iodide assay of primary alveolar epithelial cells exposed to serum-free conditioned media, see Uhal et al., Am.

[3] = system: angiotensinogen (ANGEN) mRNA; test: Quantitative RT-PCR of angiotensinogen mRNA in Fas-activated A549 cells; type: cell-based, human; conditions: A549, CH-11
Description: (§1) RT-PCR. Reverse transcriptase polymerase chain reaction (RT-PCR) assay of angiotensinogen gene products was performed as described in Wang et al., Am. J. Physiol. 276:L885-L889 (1999) in a total reaction volume of 30 μl. Total RNA was isolated by the RNeasy Mini protocol (Qiagen Co., Santa Clarita, Calif.). The reaction was performed for 1 hour at 45 C. followed by 20 cycles of PCR amplification. PCR amplification was performed with 10 ul aliquots of cDNA, equivalent to 1 ug of the starting RNA. The identity of expressed genes was determined by expected size of the PCR product in 1.6% agarose gels.
For RT-PCR from the human A549 cells, the following primers were used: for angiotensinogen, “outer” primer of a two-step nested assay, coding=5′ GCTTTC-[…] 3′ [SEQ. ID NO. ______], and noncoding=5′ […] 3′ [SEQ. ID. NO. ______]; for the “inner” primer of the nested assay, coding=5′ […] 3′ [SEQ. ID NO. ______], and noncoding=5′ […] 3′ [SEQ. ID NO. ______]. These primers yield a final PCR product of 447 bp (8). […]
(§2) To confirm this, total RNA was isolated from human A549 cells or primary rat AEC that were unactivated (CTL) or activated with Fas-ligating CH-11 antibody or purified Fas ligand in the presence or absence of saralasin (SAR). Quantitative RT-PCR was performed with primers specific for human or rat angiotensinogen (ANGEN), β-actin or β-microglobulin (b-MG). […]

[4] = system: angiotensinogen (ANGEN) mRNA; test: Quantitative RT-PCR of angiotensinogen mRNA in Fas-activated primary rat AEC; type: cell-based; conditions: Fas ligand
Description: as §1
For RT-PCR of rat-specific gene products, the following primers were used: for angiotensinogen, coding=5′ […] 3′, and noncoding=5′ […] 3′, which yields a PCR product of 226 bp by single-step RT-PCR (Pierzchalski et al., Exp. Cell Res. 234:57-65 (1997)). For β-microglobulin, the primers used were: coding=5′ […] 3′, and noncoding=5′ […] 3′, which yields a product of 249 bp (Katwa et al., Cardiovasc. Res. 29:57-64 (1995)).
as §2

| SMILES | lung lesions, histology [1] | total lung collagens by hydroxyproline assay [1] | inhibition of accumulation of lung collagens ([1]; captopril 500 mg/liter drinking water, ZVAD-fmk 1 mg per kg daily i.p., 14 days after BLEO) | inhibition of ISEL labeling in AEC ([1]; 14 days after BLEO) | inhibition of ISEL labeling in airway epithelial cells ([1]; 14 days after BLEO) | inhibition of apoptosis induced by HIPF-conditioned media [2] | effect on accumulation of ANGEN mRNA during Fas activation [3] | effect on accumulation of ANGEN mRNA during Fas activation [4] |
| --- | --- | --- | --- | --- | --- | --- | --- | --- |
| COC(=O)C[C@H](NC(=O)[C@H](C)NC(=O)[C@@H](NC(=O)OCc1ccccc1)C(C)C)C(=O)CF [ZVAD-fmk, N-benzylcarboxy-Val-Ala-Asp-[O-Me]-CH2F] (Cbz-Val-Ala-Asp(OMe)-CH2F) | much less extensive | inhibited lung collagen accumulation | 85% | – | – | – | – | – |
| C[C@H](CS)C(=O)N1CCC[C@H]1C(=O)O [captopril] | much less extensive | inhibited lung collagen accumulation | – | 99% | 67% | – | – | – |
| CNCC(=O)N[C@@H](CCCN=C(N)N)C(=O)N[C@H](C(=O)N[C@@H](Cc1ccc(O)cc1)C(=O)N[C@H](C(=O)N[C@@H](Cc1cnc[nH]1)C(=O)N1CCC[C@H]1C(=O)N[C@@H](C)C(=O)O)C(C)C)C(C)C [saralasin] | – | – | – | – | – | completely abrogated; also recorded: eliminated | had no effect | had no effect |
